# Reference: ChEMBL document CHEMBL2380212, “Synthesis, single crystal and antitumor activities of benzimidazole-quinazoline hybrids” (Bioorg Med Chem Lett, 2013)
# How the values were obtained:
# Format in all cases: functional
# BT-549 = assay: Cytotoxicity against human BT549 cells at 10 uM after 48 hrs by SRB assay; details: BT-549, 48 h, read-out: GI
# HOP-92 = assay: Cytotoxicity against human HOP92 cells at 10 uM after 48 hrs by SRB assay; details: HOP-92, 48 h, read-out: GI
# RXF 393 = assay: Cytotoxicity against human RXF393 cells at 10 uM after 48 hrs by SRB assay; details: RXF 393, 48 h, read-out: GI
# HCC 2998 = assay: Cytotoxicity against human HCC2998 cells at 10 uM after 48 hrs by SRB assay; details: HCC 2998, 48 h, read-out: GI
# T47D = assay: Cytotoxicity against human T47D cells at 10 uM after 48 hrs by SRB assay; details: read-out: GI
# SK-MEL-5 = assay: Cytotoxicity against human SK-MEL-5 cells at 10 uM after 48 hrs by SRB assay; details: SK-MEL-5, 48 h, read-out: GI
# NCI-H522 = assay: Cytotoxicity against human NCI-H522 cells at 10 uM after 48 hrs by SRB assay; details: NCI-H522, 48 h, read-out: GI
# NCI-H460 = assay: Cytotoxicity against human NCI-H460 cells at 10 uM after 48 hrs by SRB assay; details: NCI-H460, 48 h, read-out: GI
# OVCAR-4 = assay: Cytotoxicity against human OVCAR4 cells at 10 uM after 48 hrs by SRB assay; details: OVCAR-4, 48 h, read-out: GI
# MDA-MB-435 = assay: Cytotoxicity against human MDA-MB-435 cells at 10 uM after 48 hrs by SRB assay; details: MDA-MB-435, 48 h, read-out: GI
# A498 = assay: Cytotoxicity against human A498 cells at 10 uM after 48 hrs by SRB assay; details: A498, 48 h, read-out: GI
# MOLT-4 = assay: Cytotoxicity against human MOLT4 cells at 10 uM after 48 hrs by SRB assay; details: MOLT-4, 48 h, read-out: GI
# CCRF-CEM = assay: Cytotoxicity against human CCRF-CEM cells at 10 uM after 48 hrs by SRB assay; details: read-out: GI
# Malme-3M = assay: Cytotoxicity against human MALME-3M cells at 10 uM after 48 hrs by SRB assay; details: read-out: GI
# TK-10 = assay: Cytotoxicity against human TK10 cells at 10 uM after 48 hrs by SRB assay; details: TK-10, 48 h, read-out: GI
# UACC-62 = assay: Cytotoxicity against human UACC62 cells at 10 uM after 48 hrs by SRB assay; details: UACC-62, 48 h, read-out: GI
# OVCAR-8 = assay: Cytotoxicity against human OVCAR8 cells at 10 uM after 48 hrs by SRB assay; details: OVCAR-8, 48 h, read-out: GI
# IGROV-1 = assay: Cytotoxicity against human IGROV1 cells at 10 uM after 48 hrs by SRB assay; details: IGROV-1, 48 h, read-out: GI
SMILES,inhibition of growth at 10 µM (BT-549),inhibition of growth at 10 µM (HOP-92),inhibition of growth at 10 µM (RXF 393),inhibition of growth at 10 µM (HCC 2998),inhibition of growth at 10 µM (T47D),inhibition of growth at 10 µM (SK-MEL-5),inhibition of growth at 10 µM (NCI-H522),inhibition of growth at 10 µM (NCI-H460),inhibition of growth at 10 µM (OVCAR-4),inhibition of growth at 10 µM (MDA-MB-435),inhibition of growth at 10 µM (A498),inhibition of growth at 10 µM (MOLT-4),inhibition of growth at 10 µM (CCRF-CEM),inhibition of growth at 10 µM (Malme-3M),inhibition of growth at 10 µM (TK-10),inhibition of growth at 10 µM (UACC-62),inhibition of growth at 10 µM (OVCAR-8),inhibition of growth at 10 µM (IGROV-1)
C=CCn1c(C)nc2ccc(Nc3nc(N4CCN(C)CC4)nc4ccccc34)cc21,20.7%,42.4%,< 10%,< 10%,20.6%,18.3%,< 10%,< 10%,20.7%,< 10%,< 10%,43.1%,31.5%,< 10%,< 10%,< 10%,23.4%,< 10%
C=CCn1c(C)nc2cc(Nc3nc(N4CCCC4)nc4ccccc34)ccc21,< 10%,15.5%,< 10%,< 10%,22.6%,< 10%,< 10%,< 10%,< 10%,< 10%,27.6%,< 10%,,< 10%,< 10%,< 10%,< 10%,< 10%
C=CCn1c(C)nc2ccc(Nc3nc(N4CCOCC4)nc4ccccc34)cc21,< 10%,< 10%,< 10%,< 10%,11.2%,< 10%,< 10%,< 10%,< 10%,< 10%,41.2%,,,< 10%,< 10%,< 10%,20.1%,< 10%
C=CCn1c(C)nc2ccc(Nc3nc(N4CCCC4)nc4ccccc34)cc21,13.1%,18.6%,47.6%,76.6%,< 10%,37.6%,< 10%,18.7%,< 10%,< 10%,28.5%,50%,,< 10%,< 10%,< 10%,15.9%,< 10%
C=CCn1c(C)nc2cc(Nc3nc(N4CCOCC4)nc4ccccc34)ccc21,< 10%,< 10%,< 10%,< 10%,< 10%,< 10%,< 10%,< 10%,< 10%,< 10%,20.7%,< 10%,,,< 10%,< 10%,< 10%,< 10%
C=CCn1c(C)nc2ccc(Nc3nc(Cl)nc4ccccc34)cc21,< 10%,< 10%,12.5%,< 10%,18.5%,< 10%,< 10%,< 10%,< 10%,< 10%,44.5%,21.3%,,< 10%,< 10%,< 10%,< 10%,< 10%
C=CCn1c(C)nc2cc(Nc3nc(Cl)nc4ccccc34)ccc21,< 10%,< 10%,< 10%,< 10%,21.3%,< 10%,< 10%,< 10%,< 10%,< 10%,31.5%,< 10%,,,< 10%,10.2%,< 10%,< 10%
